Data on three molecules can be found in EP4759817A1, “HETEROARYL COMPOUND, PREPARATION METHOD THEREFOR, AND USE THEREOF IN MEDICINE” (Jiangsu Hengrui Pharmaceuticals Co., Ltd., priority 2023, dated 2025).

Usually IC50 stands for the point on the concentration scale where inhibition reaches its midpoint. Read a low IC50 as greater potency in that assay.

For data set [1], the system named is HCT116 cells. The data set can be described thus: HCT116 cell proliferation assay (CellTiter-Glo, 10 days). The data set is classed as cell-based. The following applies: Homo sapiens, HCT-116, 240 h, growth inhibition, CTG assay Day 10. The source says: • I. Experimental materials and instruments • 1. HCT116 cell line (Nanjing Kebai Biotechnology Co., Ltd., CBP60028) • 2. HCT116 MTAP-/- cell line (Nanjing Kebai Biotechnology Co., Ltd., CBP75002) • 3. DMSO (Sigma, D2650) • 4. McCoy's 5A medium (Gibco, 16600-082) • 5. Foetal bovine serum (FBS) (Gibco, 10091148) • 6. Phosphate buffered saline (DPBS) pH 7.4 (Gibco, 14190-144) • 7. Pen strep (PS) (Gibco, 15140-122) • 8. 0.25% Typsin-EDTA (1×) (Gibco, 25200-072) • 9. CellTiter-Glo® Luminescent Cell Viability Assay (Promega, G7572) • 10. 96-well round-bottom plate (JET, TCP002096) • 11. 96-well black clear bottom plate (Hangzhou Xinyou Biotechnology Co., Ltd., 060096) • 12. 1.2 mL 96-well deep well plate, clear, sterile, square-well, V-bottom (Titan, 02089063) • 13. 15-mL centrifuge tube (Titan) • 14. Biosafety cabinet (Thermo, 1300AII) • 15. Cell counter (Countstar, IC1000) • 16. Incubator (Thermo, I160) • 17. Centrifuge (Beckman coulter, Allegra X-12 centrifuge) • 18. PHERAstar FS microplate reader (BMG Labtech) • II. Experimental procedure • 1. Cell plating (Day 0) • a) The cell morphology was observed under a microscope to ensure confluence reached approximately 90%. • b) The cell supernatant was aspirated, the cells were washed once with PBS, and then the PBS was removed; and the cells were digested by adding an appropriate amount of trypsin, and left to stand at 37°C for 3 minutes. • c) The digestion was terminated by adding an equal volume of McCoy's 5A medium containing 10% FBS, and the cell suspension was collected and centrifuged at 300 g for 3 minutes; and the cells were resuspended in an appropriate amount of fresh medium. • d) The resuspended cell suspension was taken for counting. • e) The cell suspension was diluted to 1e4/mL using McCoy's 5A medium containing 10% FBS, and seeded at 50 µL per well, corresponding to 500 cells/well for HCT116 and 500 cells/well for HCT116 MTAP-/-. • f) The cell plate was placed in a 37°C, 5% carbon dioxide incubator and incubated overnight. • 2. Compound treatment (Day 1) • a) Each compound was serially diluted in DMSO to generate a 9-point concentration gradient (starting concentration: 10000 µM, 3-fold dilution; the highest concentration may be adjusted individually based on IC50 of different compounds); for example, in a 96-well round-bottom compound-dilution plate, 5 µL of the compound was sequentially diluted into 10 µL of DMSO. • b) Each concentration point of every compound was then diluted 250-fold into the corresponding volume of McCoy's 5A medium. • c) To each cell plate, 50 µL of the diluted compound solution as described above was added sequentially to the cell supernatant (50 µL/well). • d) The compound-treated cell plate was placed in a 37°C, 5% carbon dioxide incubator and incubated. • 3. […]
(In general: ATP-based viability assays read luminescence as a measure of living cells.)

For data set [2], the system named is Lu99 xenografts. Briefly: Efficacy test in subcutaneous Lu99 xenograft model. The data set is classed as in vivo, NUNU nude mice. Particulars: i.g., qd/21d. The source says: To evaluate the inhibitory effect of the compounds of the present disclosure on tumour growth in a subcutaneous xenograft model using the human lung giant cell carcinoma cell line Lu99 in female NUNU nude mice
Using a solution of 20% PEG400 + 70% (10% TPGS) + 5%DMSO+5% (1% HPMCK100LV) solution
Laboratory animals: Female NUNU nude mice, purchased from Zhejiang Vital River Laboratory Animal Technology Co., Ltd. (License No.: SCXK(Zhe)2024-0001; animal qualification certificate No.: 20240524Abzz0619000789), weighing approximately 20-24 g at arrival.
Housing conditions: The mice were housed 5 per cage under a 12/12 h light/dark cycle, constant temperature of 23°C ± 1°C, humidity of 50%-60%, with free access to food and water.
After acclimatisation, NUNU nude mice were grouped and administered as follows: Table 4. Animal grouping and dosing regimen for in vivo efficacy experiment
(§1) 0.1 ml (5 × 10^5 cells ± 50% matrigel) of Lu99 cells (cell-to-matrigel volume ratio = 1 : 1) in the logarithmic growth phase was subcutaneously injected into the right upper limb of each mouse. When the mean tumour volume reached 75 mm^3, mice were randomly assigned to 4 groups (12 mice per group) based on tumour volume and body weight, as shown in Table 4. The day of grouping was designated as D0, and oral gavage administration was initiated once or twice daily for a total of 21 days. The 21st day after administration was designated as D21 (Table 5). Tumour volume and body weight of tumour-bearing mice were measured twice weekly using a calliper and a balance, respectively, and the data were recorded.
All data were plotted and statistically analysed using Excel and GraphPad Prism 10 software.
Tumour volume (V) was calculated using the formula: V = 1/2 × a × b^2, where a represents the length and b represents the width.
Relative tumour proliferation rate: T/C (%) = (T-T0)/(C-C0) × 100(%), where T and C are the tumour volumes of the treated and control groups at the end of the experiment, and T0 and C0 are the corresponding tumour volumes at the start of the experiment.
Tumour growth inhibition: TGI (%) = 100-T/C (%).

The nature of data set [3]: Body weight and survival of tumour-bearing mice in the Lu99 efficacy test. The data set is classed as in vivo, NUNU nude mice. The following applies: for Surviving animals/group: i.g., qd/21d. The method, then: as §1
Data set [4] relates to HCT116 MTAP-/- cells. Briefly: HCT116 MTAP-/- cell proliferation assay (CellTiter-Glo, 10 days). The data set is classed as cell-based. Particulars: Homo sapiens, HCT-116, 240 h, growth inhibition, CTG assay Day 10. The source says:
• I. Experimental materials and instruments • 1. HCT116 cell line (Nanjing Kebai Biotechnology Co., Ltd., CBP60028) • 2. HCT116 MTAP-/- cell line (Nanjing Kebai Biotechnology Co., Ltd., CBP75002) • 3. DMSO (Sigma, D2650) • 4. McCoy's 5A medium (Gibco, 16600-082) • 5. Foetal bovine serum (FBS) (Gibco, 10091148) • 6. Phosphate buffered saline (DPBS) pH 7.4 (Gibco, 14190-144) • 7. Pen strep (PS) (Gibco, 15140-122) • 8. 0.25% Typsin-EDTA (1×) (Gibco, 25200-072) • 9. CellTiter-Glo® Luminescent Cell Viability Assay (Promega, G7572) • 10. 96-well round-bottom plate (JET, TCP002096) • 11. 96-well black clear bottom plate (Hangzhou Xinyou Biotechnology Co., Ltd., 060096) • 12. 1.2 mL 96-well deep well plate, clear, sterile, square-well, V-bottom (Titan, 02089063) • 13. 15-mL centrifuge tube (Titan) • 14. Biosafety cabinet (Thermo, 1300AII) • 15. Cell counter (Countstar, IC1000) • 16. Incubator (Thermo, I160) • 17. Centrifuge (Beckman coulter, Allegra X-12 centrifuge) • 18. PHERAstar FS microplate reader (BMG Labtech) • II. Experimental procedure • 1. Cell plating (Day 0) • a) The cell morphology was observed under a microscope to ensure confluence reached approximately 90%. • b) The cell supernatant was aspirated, the cells were washed once with PBS, and then the PBS was removed; and the cells were digested by adding an appropriate amount of trypsin, and left to stand at 37°C for 3 minutes. • c) The digestion was terminated by adding an equal volume of McCoy's 5A medium containing 10% FBS, and the cell suspension was collected and centrifuged at 300 g for 3 minutes; and the cells were resuspended in an appropriate amount of fresh medium. • d) The resuspended cell suspension was taken for counting. • e) The cell suspension was diluted to 1e4/mL using McCoy's 5A medium containing 10% FBS, and seeded at 50 µL per well, corresponding to 500 cells/well for HCT116 and 500 cells/well for HCT116 MTAP-/-. • f) The cell plate was placed in a 37°C, 5% carbon dioxide incubator and incubated overnight. • 2. Compound treatment (Day 1) • a) Each compound was serially diluted in DMSO to generate a 9-point concentration gradient (starting concentration: 10000 µM, 3-fold dilution; the highest concentration may be adjusted individually based on IC50 of different compounds); for example, in a 96-well round-bottom compound-dilution plate, 5 µL of the compound was sequentially diluted into 10 µL of DMSO. • b) Each concentration point of every compound was then diluted 250-fold into the corresponding volume of McCoy's 5A medium. • c) To each cell plate, 50 µL of the diluted compound solution as described above was added sequentially to the cell supernatant (50 µL/well). • d) The compound-treated cell plate was placed in a 37°C, 5% carbon dioxide incubator and incubated. • 3. Re-digestion, re-plating and compound treatment (Day 5) • a) After 5 days of compound treatment, the compound-containing medium was aspirated, and the cells were rinsed once with PBS (100 µL/well); and the PBS was removed immediately. • b) The cells were digested by adding 25 µL of trypsin and incubated at 37°C for 3 minutes, and then the digestion was terminated by adding 175 µL/well of McCoy's 5A medium containing 10% FBS. • c) The cells were mixed thoroughly using a pipette, and re-plated at 1 : 20; and specifically, 10 µL of the cell suspension was aspirated to a new 96-well plate (pre-filled with 40 µL of McCoy's 5A medium containing 10% FBS. • d) Compounds were prepared and added according to steps a) to c) in Section 2, with 50 µL added per well. • e) The compound-treated cell plate was placed in a 37°C, 5% carbon dioxide incubator and incubated. • 4. […]

As to `[2H]C([2H])([2H])n1ncc(-c2ccc3c(=O)[nH]nc(CN)c3c2)c1-c1c(F)cc2c(c1C#N)O[C@H]1CC[C@H]1O2` (single isomer, unassigned) [Compound 2-p1], the IC50 in data set [1] was determined as 1300 nM; in data set [4] it was 10.2 nM. Moreover, the results for the “Mean tumour volume (mm^3) D21” value in data set [2] (50 mpk), in data set [2] (100 mpk) and in data set [2] (200 mpk) were 574 mm^3, 256 mm^3 and 165 mm^3, respectively. The “TGI (%) D21” value in data set [2] (50 mpk) is 72%; in data set [2] (100 mpk), 90%; in data set [2] (200 mpk) it was 95%. In data set [3] (50, 100 and 200 mpk/qd, once daily for 21 days), the “effect on body weight of the mice” value is reported as “no effects on body weight”. The Surviving animals/group in data set [3] (50 mpk), in data set [3] (100 mpk) and in data set [3] (200 mpk) was 12/12 in each case.
In the case of `[2H]C([2H])([2H])n1ncc(-c2ccc3c(=O)[nH]nc(CN)c3c2)c1-c1c(F)cc2c(c1C#N)N1CCC[C@H]1CO2` (single isomer, unassigned) [Compound 8-p1], the figures for the IC50 in data set [1] and in data set [4] were 1450 nM and 16.1 nM, respectively.
Regarding `Cn1ncc(-c2ccc3c(=O)[nH]nc(CN)c3c2)c1-c1c(F)cc2c(c1C#N)O[C@H]1CC[C@H]1O2` (atropisomer, axis not shown; (M)) [Compound 1-p1, (M)-(2aS,8aR)-5-(4-(4-(aminomethyl)-1-oxo-1,2-dihydrophthalazin-6-yl)-1-methyl-1H-pyrazol-5-yl)-6-fluoro-1,2,2a,8a-tetrahydrobenzo[b]cyclobuta[e][1,4]dioxine-4-carbonitrile], the IC50 in data set [1] was 1450 nM; in data set [4] it was 11.9 nM.
